Data on five compounds can be found in publication PMC10817097, “Caffeic Acid Phosphanium Derivatives: Potential Selective Antitumor, Antimicrobial and Antiprotozoal Agents” (International Journal of Molecular Sciences, 2024).

pEC50: −log10 of the molar value. Values after ≈ are worked out from the molar mass of the structure shown. Values joined by “and” are separate entries in the source; they are usually repeats but may differ in a detail not shown here. Identical values can stand only once. Like-named read-outs stand apart in the source and are kept apart here.

Broadly, the MIC is the lowest concentration found to suppress growth. For orientation: MBC means the lowest tested concentration that kills the bacteria rather than only halting them. Read a high MBC as weaker bactericidal potency. The pEC50 is the negative decadic logarithm of the EC50, by convention in mol/L. Low readings indicate a large EC50, high ones a small EC50.

Data set [1] deals with the other tested bacteria and the strain of Candida albicans. Briefly: MIC/MBC, other tested bacteria and Candida albicans. It is filed as cell-based. Conditions: listed as caffeic acid. The procedure:
The antimicrobial activity of caffeic acid and its semi-synthetic derivates was tested against Gram-positive (Staphylococcus aureus CCM 4750, methicillin-resistant; Staphylococcus aureus CCM 4223, methicillin-susceptible; Enterococcus faecalis CCM 4224) and Gram-negative bacteria (Pseudomonas aeruginosa CCM 3955; Escherichia coli CCM 3954; Klebsiella pneumoniae CCM 4415; Proteus mirabilis CCM 7188), and one strain of a yeast Candida albicans (CCM 8267). Microbial strains were purchased from the Czech Collection of Microorganisms, Brno, Czech Republic, and preserved in aliquots in cryoprotective media at −20 °C until the testing. Revival of cryoprotected bacteria took place by overnight cultivation on blood agar and an additional passage on blood agar. Minimal inhibitory concentrations (MIC) against bacteria were detected by broth microdilution test in sterile 96-well U-shaped microtiter plates (Roll s.a.s., Piove di Sacco, Italy) according to the EUCAST recommendations. The test was performed in 100 μL volumes in microtiter plate wells with a final bacterial concentration of 5 × 10^5 CFU·mL^−1. […] The minimal bactericidal/fungicidal concentrations (MBC/MFC) were detected by point-inoculation of 5 μL aliquots from test wells without visible growth on solid agar media free of antimicrobials. […]

Data set [2] has as its system Pseudomonas aeruginosa CCM 3955. Briefly: Broth microdilution MIC and MBC. It is filed as cell-based. Conditions: for MIC / MBC: Pseudomonas aeruginosa, CCM3955, P. aeruginosa CCM 3955; for MBC: inactivating 99.9% of inoculum. The procedure:
(§1) The antimicrobial activity of caffeic acid and its semi-synthetic derivates was tested against Gram-positive (Staphylococcus aureus CCM 4750, methicillin-resistant; Staphylococcus aureus CCM 4223, methicillin-susceptible; Enterococcus faecalis CCM 4224) and Gram-negative bacteria (Pseudomonas aeruginosa CCM 3955; Escherichia coli CCM 3954; Klebsiella pneumoniae CCM 4415; Proteus mirabilis CCM 7188), and one strain of a yeast Candida albicans (CCM 8267). Microbial strains were purchased from the Czech Collection of Microorganisms, Brno, Czech Republic, and preserved in aliquots in cryoprotective media at −20 °C until the testing. Revival of cryoprotected bacteria took place by overnight cultivation on blood agar and an additional passage on blood agar. Minimal inhibitory concentrations (MIC) against bacteria were detected by broth microdilution test in sterile 96-well U-shaped microtiter plates (Roll s.a.s., Piove di Sacco, Italy) according to the EUCAST recommendations. The test was performed in 100 μL volumes in microtiter plate wells with a final bacterial concentration of 5 × 10^5 CFU·mL^−1. Antifungal activity testing was performed according to the EUCAST-recommended method for the determination of broth dilution minimum inhibitory concentrations of antifungal agents for yeasts, with some modifications. The final yeast concentration in the test wells was 10^4 CFU·mL^−1. The minimal bactericidal/fungicidal concentrations (MBC/MFC) were detected by point-inoculation of 5 μL aliquots from test wells without visible growth on solid agar media free of antimicrobials. Mueller–Hinton broth and agar were used for bacteria, and Sabouraud dextrose broth and agar for fungi (OXOID, Basingstoke, Hampshire, UK). The tested agents were dissolved in 50% ethanol, and serial dilutions were prepared in the test medium to obtain final concentrations ranging from 5000 to 5 μg·mL^−1, which corresponds to 27,753—54 μM for caffeic acid, 7251—14 μM for CAP 6, 6967—14 μM for CAP 8, 6705—13 μM for CAP 10 and 6462—13 μM for CAP 12. Wells with media free of bacteria served as sterility control and wells with bacteria without antimicrobial agents were used as growth control. The MIC was determined to be the lowest concentration of the antimicrobial agent inhibiting the growth of the tested microorganism, and the MBC/MFC was determined to be the lowest concentration, inactivating 99.9% of microbial inoculum. All tests were performed in three independent runs to exclude possible excessive values due to permissible measurement error.
On the technique in general: In broth dilution the organism is exposed to a series of concentrations in liquid medium.

Another data set deals with S. aureus (MS) CCM 4223. Briefly: Broth microdilution MIC and MBC. Format: cell-based. Conditions: Staphylococcus aureus, CCM4223, S. aureus methicillin-susceptible CCM 4223; for MBC: inactivating 99.9% of inoculum. How it is done: as §1
The subject of data set [3] is non-pathogenic Neff's strain of Acanthamoeba castellanii. Set-up: method as in Sifaoui et al. (2017) 44. Conditions: A. castellanii Neff, 96 h of incubation, ref Sifaoui et al. (2017) 44; cited from earlier work.
On the set-up of data set [4]: method as in PMID 11743793. Conditions: cited from earlier work.
Data set [5] has as its system Acanthamoeba trophozoites. Briefly: Amoebicidal activity assay, both strains. Format: cell-based. How it is done: The activity against two clinical isolates of free-living amoebae, Acanthamoeba lugdunensis (strain AcaVNAK02) and Acanthamoeba quina (strain AcaVNAK03), both belonging to the T4 genotype, was tested in vitro as previously described. The trophozoites were cultivated in 25 cm^2 tissue culture flasks under axenic conditions in peptone-yeast extract-glucose medium (PYG). The cultivation was carried out under aerobic conditions at laboratory temperature. For the experiments, a fresh 72 h culture was used. Acanthamoebae adherent to flasks represented the trophozoite form and was used in the subsequent assay. Experiments were carried out in 96-well microtiter plates under sterile conditions at 37 °C. Each well was seeded with 100 µL (2 × 10^5 cells mL^−1) of a trophozoite suspension. Then, 100 µL of a freshly prepared medium containing a tested compound at 6 different concentrations was added to all wells, except for the untreated control wells that received 100 µL of the pure medium. Each compound was tested at final concentrations of 500, 250, 125, 62.5, 31.25, and 15.6 µM. The reduction of trophozoites was recorded after 24 h by counting the surviving cells in a Bürker–Türk hemocytometer. […] The viability of trophozoites was determined by trypan blue exclusion. […]

As for `O=C(O)C=Cc1ccc(O)c(O)c1` [CA, 3-(3,4-dihydroxyphenyl)-2-propenoic acid, reference compound], the MIC/MBC result in data set [1] is “exceeded 6900 μM and > 1200 μg/mL”; in data set [2] (P. aeruginosa, corresponding to the μM value) it was 625 µg/mL (≈ 3470 µM). Moreover, the minimal inhibitory concentration (MIC) was determined as 3470 µM (≈ 625 µg/mL) in data set [2] and 6940 µM (≈ 1250 µg/mL) against S. aureus (MS) CCM 4223. In addition, the MBC in data set [2] turned out to be 3470 µM (≈ 625 µg/mL); against S. aureus (MS) CCM 4223, 13900 µM (≈ 2500 µg/mL). Moreover, in data set [3], the “IC50 (50% growth inhibition)” value is over 100 µg/mL. In addition, the “plasma levels of caffeic acid” value in data set [4] (1 h after consumption of 300 mL red wine (about 2.8 mg caffeic acid)) is given as 4.9 ± 0.3 ng/mL; in data set [4] (1 h after consumption of 300 mL red wine, approx. conversion) it was “approx. 27.2 nM”. In data set [5] (Acanthamoeba, after 24 h), the pEC50 was at most 2.52.

In data set [2], `CC(=O)Oc1ccc(/C=C/C(=O)OCCCCCC[P+](c2ccccc2)(c2ccccc2)c2ccccc2)cc1OC(C)=O` [CAP 6, P,P,P-triphenyl-6-{(2E)-3-[3,4-(diacetyloxy)penyl]prop-2-enoyloxy}hexane-1-phosphanium bromide] displayed an MIC of 453 µM and an MBC of 453 µM. In the data set on S. aureus (MS) CCM 4223, this compound displayed a minimum inhibitory concentration (MIC) of 14 µM and an MBC of 14 µM. For the same compound, the “times higher inhibitory activity than phosphanium salts of rosmarinic acid” value in data set [5] (comparison to compounds of ref 15) is recorded as “more than 15 times”.

In data set [2], `CC(=O)Oc1ccc(/C=C/C(=O)OCCCCCCCC[P+](c2ccccc2)(c2ccccc2)c2ccccc2)cc1OC(C)=O` [CAP 8, P,P,P-triphenyl-8-{(2E)-3-[3,4-(diacetyloxy)penyl]prop-2-enoyloxy}okctane-1-phosphanium bromide] gave a minimal inhibitory concentration (MIC) of 871 µM and a minimum bactericidal concentration (MBC) of 871 µM. In the data set with S. aureus (MS) CCM 4223, this compound displayed an MIC of 14 µM and a minimum bactericidal concentration (MBC) of 14 µM.

In data set [2], `CC(=O)Oc1ccc(/C=C/C(=O)OCCCCCCCCCC[P+](c2ccccc2)(c2ccccc2)c2ccccc2)cc1OC(C)=O` [CAP 10, P,P,P-triphenyl-10-{(2E)-3-[3,4-(diacetyloxy)penyl]prop-2-enoyloxy}decane-1-phosphanium bromide] registered an MIC of 838 µM and a minimal bactericidal concentration (MBC) of 676 µM. In addition, in the data set on S. aureus (MS) CCM 4223, the minimal inhibitory concentration (MIC) worked out at 13 µM and the MBC was 13 µM.

Take `CC(=O)Oc1ccc(/C=C/C(=O)OCCCCCCCCCCCC[P+](c2ccccc2)(c2ccccc2)c2ccccc2)cc1OC(C)=O` [CAP 12, P,P,P-triphenyl-12-{(2E)-3-[3,4-(diacetyloxy)penyl]prop-2-enoyloxy}dodecane-1-phosphanium bromide]: the MIC in data set [2] came out at 404 µM; against S. aureus (MS) CCM 4223, 50 µM. Further, the MBC amounted to 808 µM in data set [2] and 50 µM against S. aureus (MS) CCM 4223.
